From patent US20260001879A1, “COMPOUNDS AS MYT1 INHIBITORS” (WIGEN BIOMMEDICINE TECHNOLOGY (SHANGHAI) CO., LTD., priority 2022, published 2026)
Converted amounts (≈) assume the structure as drawn. Like-named read-outs stand apart in the source and are kept apart here. Values belong to the compound of their own block, whether it stands above or below them.

How the values were obtained:
[1] = In vitro stability experiment (HPLC purity after stirring in vehicle); format: physicochemical
Protocol: (§1) Preparation of a standard curve: 10.01 mg of sample was weighed out and placed in a volumetric flask, and the volume was brought to 10 mL with acetonitrile/water (v/v, 9/1) to prepare 1.001 mg/mL of standard solution; the standard solution was then serially diluted to 0.5005 mg/mL, 0.1001 mg/mL, 0.05005 mg/mL, 0.01001 mg/mL, and 0.001001 mg/mL to generate the standard curve, and a linear equation was fitted by taking the peak area of the sample as a vertical axis and the concentration as a horizontal axis.
(§2) Solubility and stability test: 15 mg of sample was added to 3 mL of vehicle (FaSSIF, FeSSIF, SGF, or water) to prepare a corresponding suspension at a target concentration of 5 mg/mL. The prepared suspension was stirred on a shaker (800 rpm) at 37° C. for 0.5 h, and the suspension was then filtered. The filtrate was diluted with a diluent to a corresponding multiple so that the peak height could not exceed the standard curve, and the solubility and purity were detected using HPLC.

MIA PaCa-2 cells [2] = test: In vitro anti-proliferative activity in combination with gemcitabine against MIA PaCa-2 cells; format: cell-based
Protocol: (§3) MIA PaCa-2 cells were seeded on a 384-well plate at 3000 cells/well, and 20 nM gemcitabine was added. After overnight adherence culture, DMSO or the compounds serially diluted 1:5 from 1000 nM were added. The viability was assessed 72 h after dosing by measuring the intracellular ATP content. The inhibition percentage of viable cells by the compounds was calculated by comparing with the DMSO group, and the IC50 value was calculated.

in vitro = settings: dog, MDCK
Protocol: (§4) In vitro passive permeability or the ability to serve as a P-glycoprotein (P-gp) transport substrate was tested using MDCK cells (MDCK wild type) or MDCK cells stably transduced with MDRI (MDCK-MDRI), respectively. The permeability experiment was performed in duplicate in a transwell system at a single concentration (5 μM). The cells were incubated for […] Apical-to-basolateral (A to B, A-B) transport and basolateral-to-apical (B to A, B-A) transport of the corresponding compound were determined, and the permeation rate (apparent permeability) (Papp×10^−6 cm/sec) and efflux ratio (Papp (B−A)/Papp (A−B)) of the test compound were calculated.

[3] = tested on: P-glycoprotein (P-gp, MDR1); test: in vitro; settings: dog
Protocol: as §4

[4] = In vivo pharmacokinetic experiment in mice; design: species or system CD-1 female mice; settings: mouse
Protocol: CD-1 female mice aged 7 to 10 weeks were intravenously administered and orally administered at a dose of 2 mg/kg and 10 mg/kg, respectively. The mice were fasted for at least 12 h before the administration and given food 4 h after the administration, and they were given ad libitum access to water during the experiment. On the day of the experiment, animals in the intravenous group were administered the corresponding compound by single injection via the tail vein at an administration volume of 10 mL/kg. Animals in the oral group were administered the corresponding compound by single intragastric injection at an administration volume of 10 mL/kg. The animals were weighed before administration, and the administration volume was calculated according to the body weight. The sample collection time was 0.083 h (injection group), 0.167 h, 0.5 h, 1 h, 2 h, 4 h, 8 h, and 24 h. About 200 μL of whole blood was collected through the submaxillary venous plexus at each time point and used to prepare plasma for concentration determination by high-performance liquid chromatography-tandem mass spectrometry (LC-MS/MS). All animals were euthanized with CO2 anesthesia after the PK samples were collected at the last time point. The plasma concentrations were processed using a non-compartmental model of Phoenix WinNonlin™ version 8.3 (Certara) pharmacokinetic software, and the pharmacokinetic parameters were calculated using a linear-log trapezoidal method.

[5] = In vitro solubility experiment; format: physicochemical; settings: for solubility at 0.5 h: organic solvent or mixture, thermodynamic from solid
Protocol: as §1, §2

recombinant protein MYT1 = recombinant protein MYT1 (Homo sapiens (Human), UniProt Q99640); test: In vitro assay for inhibiting MYT1 kinase activity (ADP-GLO); format: biochemical; settings: 10 μM ATP, read-out: Inhibitory activity against recombinant protein MYT1 IC50
Protocol: Recombinant MYT1 protein and the compounds were pre-incubated at room temperature for 15 min, and 10 μM ATP was then added to start the reaction. The mixture was incubated at room temperature for another 60 min, and the ADP-GLO reagent from Promega was then added. The resulting mixture was incubated in the dark for 40 min, a detection solution was then added, and the mixture was incubated for another 45-60 min. The chemiluminescence was determined using ENVISION. The inhibition rate and IC50 were calculated compared to the DMSO group.

MDCK-Wild type = test: in vitro
Protocol: as §4

MDCK-MDR1 = test: in vitro; settings: MDCK-MDR1
Protocol: as §4

MIA PaCa-2 cells [6] = test: In vitro anti-proliferative activity against MIA PaCa-2 cells (compound alone); format: cell-based; settings: 72 h, intracellular ATP content
Protocol: as §3, with “cells/well.” for “cells/well, and 20 nM gemcitabine was added.”, “10 μM” for “1000 nM”

[7] = stability in FaSSIF, initial pH 6.52, 37° C.
[8] = stability in FeSSIF, initial pH 4.98, 37° C.
[9] = stability in SGF, initial pH 1.2, 37° C.
[10] = stability in Water, initial pH 7.7, 37° C.
[11] = female, CD-1, plasma, iv, injection 2 mg/kg

Chain of recombinant protein MYT1 (Q99640 whole entry): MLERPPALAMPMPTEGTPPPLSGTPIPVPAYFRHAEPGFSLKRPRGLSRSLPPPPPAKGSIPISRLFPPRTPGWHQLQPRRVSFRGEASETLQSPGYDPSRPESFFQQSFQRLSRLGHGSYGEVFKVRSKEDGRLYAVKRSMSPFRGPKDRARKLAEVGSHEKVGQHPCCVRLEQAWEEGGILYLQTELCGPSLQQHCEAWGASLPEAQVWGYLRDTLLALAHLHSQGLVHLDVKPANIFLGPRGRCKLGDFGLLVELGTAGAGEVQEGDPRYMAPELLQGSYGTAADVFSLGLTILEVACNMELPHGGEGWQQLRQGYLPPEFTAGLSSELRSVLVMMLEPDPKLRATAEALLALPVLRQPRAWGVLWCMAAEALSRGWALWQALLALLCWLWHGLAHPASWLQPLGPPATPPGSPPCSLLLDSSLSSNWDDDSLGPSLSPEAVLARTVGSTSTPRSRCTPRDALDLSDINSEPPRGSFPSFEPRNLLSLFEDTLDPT

HPLC purity (%, 220 nm) 0.5 h [1, 7]: 58.88% | HPLC purity (%, 220 nm) 0.5 h [1, 8]: 74.51% | HPLC purity (%, 220 nm) 0.5 h [1, 9]: 98.18% | HPLC purity (%, 220 nm) 0.5 h [1, 10]: 40.92% | IC50 (MIA PaCa-2 cells [2]; Homo sapiens, MIA PaCa-2, 72 h, read-out: Anti-proliferative activity against MIA PaCa-2 cells (20 nM gemcitabine) IC50, with 20 nM gemcitabine, 72 h, intracellular ATP content): 29 nM | efflux ratio at 90 min, 5 μM (in vitro): 2.17 | Papp A→B at 90 min, 5 µM (in vitro; Papp A-B Mean): 17.1 ×10⁻⁶ cm/s | Papp A→B at 90 min, 5 µM (in vitro; Papp A-B Sample - 01): 15.1 ×10⁻⁶ cm/s | Papp A→B at 90 min, 5 µM (in vitro; Papp A-B Sample - 02): 19.1 ×10⁻⁶ cm/s | Papp B→A at 90 min, 5 µM (in vitro; Papp B-A Mean): 37.2 ×10⁻⁶ cm/s | Papp B→A at 90 min, 5 µM (in vitro; Papp B-A Sample - 01): 38.5 ×10⁻⁶ cm/s | Papp B→A at 90 min, 5 µM (in vitro; Papp B-A Sample - 02): 35.9 ×10⁻⁶ cm/s | efflux ratio at 90 min, 5 μM ([3]; MDCK-MDR1): 2.64 | Papp A→B at 90 min, 5 µM ([3]; MDCK-MDR1, Papp A-B Mean): 13.9 ×10⁻⁶ cm/s | Papp A→B at 90 min, 5 µM ([3]; MDCK-MDR1, Papp A-B Sample - 01): 13.9 ×10⁻⁶ cm/s | Papp A→B at 90 min, 5 µM ([3]; MDCK-MDR1, Papp A-B Sample - 02): 14 ×10⁻⁶ cm/s | Papp B→A at 90 min, 5 µM ([3]; MDCK-MDR1, Papp B-A Mean): 36.9 ×10⁻⁶ cm/s | Papp B→A at 90 min, 5 µM ([3]; MDCK-MDR1, Papp B-A Sample - 01): 37.6 ×10⁻⁶ cm/s | Papp B→A at 90 min, 5 µM ([3]; MDCK-MDR1, Papp B-A Sample - 02): 36.2 ×10⁻⁶ cm/s | AUC(0-t) [4, 11]: 376 ng·h/mL | half-life [4, 11]: 0.56 h | Vd ([4]; female, CD-1, plasma, iv, injection 2 mg/kg, read-out: Vdss): 2.46 L/kg | AUC(0-t) ([4]; female, CD-1, plasma, oral administration 10 mg/kg): 1030 ng·h/mL | Cmax ([4]; female, CD-1, plasma, oral administration 10 mg/kg, read-out: Cmax): 881 ng/mL | Cl ([4]; injection 2 mg/kg): 46.5 mL/min/kg | F % ([4]; oral administration 10 mg/kg): 54.7% | solubility at 0.5 h ([5]; Methanol): 20200 µg/mL (≈ 62.2 mM) | solubility at 0.5 h ([5]; Tetrahydrofuran): 4520 µg/mL (≈ 13.9 mM)
Compound: Cc1cc2c(C(N)=O)c(N)n(-c3c(C)ccc(O)c3C)c2nc1C [RP-6306, reference compound]

Compound: Cc1cc2c(C(N)=O)c(N)n(-c3c(C)c(O)cc(F)c3C)c2nc1C (single isomer, unassigned) [Compound 2]
stability compared to RP-6306 (in words) ([1]; FaSSIF, FeSSIF, water): more stable than RP-6306 in FaSSIF, FeSSIF, and water | HPLC purity (%, 220 nm) 0.5 h [1, 7]: 88.76% | HPLC purity (%, 220 nm) 0.5 h [1, 8]: 95.98% | HPLC purity (%, 220 nm) 0.5 h [1, 9]: 98.69% | HPLC purity (%, 220 nm) 0.5 h [1, 10]: 96.4% | IC50 (recombinant protein MYT1): ≤ 200 nM | IC50 (MIA PaCa-2 cells [2]; read-out: Anti-proliferative activity against MIA PaCa-2 cells (20 nM gemcitabine) IC50, with 20 nM gemcitabine, 72 h, intracellular ATP content): 18 nM | anti-proliferative activity against MIA PaCa-2 cells in combination with gemcitabine (in words) (MIA PaCa-2 cells [2]; with 20 nM gemcitabine): stronger anti-proliferative activity than that of RP-6306 | Papp A-B Mean (MDCK-Wild type): 27.10 10^−6 cm · s^−1 | Papp A-B Sample - 01 (MDCK-Wild type): 27.93 10^−6 cm · s^−1 | Papp A-B Sample - 02 (MDCK-Wild type): 26.28 10^−6 cm · s^−1 | Papp B-A Mean (MDCK-Wild type): 42.24 10^−6 cm · s^−1 | Papp B-A Sample - 01 (MDCK-Wild type): 39.97 10^−6 cm · s^−1 | Papp B-A Sample - 02 (MDCK-Wild type): 44.50 10^−6 cm · s^−1 | permeability compared to RP-6306 (in words) (MDCK-Wild type): superior permeability to that of RP-6306 | Papp A-B Mean (MDCK-MDR1): 20.50 10^−6 cm · s^−1 | Papp A-B Sample - 01 (MDCK-MDR1): 21.08 10^−6 cm · s^−1 | Papp A-B Sample - 02 (MDCK-MDR1): 19.91 10^−6 cm · s^−1 | Papp B-A Mean (MDCK-MDR1): 35.01 10^−6 cm · s^−1 | Papp B-A Sample - 01 (MDCK-MDR1): 35.27 10^−6 cm · s^−1 | Papp B-A Sample - 02 (MDCK-MDR1): 34.76 10^−6 cm · s^−1 | permeability compared to RP-6306 (in words) (MDCK-MDR1): superior permeability to that of RP-6306 | Vdss compared to RP-6306 (in words) [4]: greater increase in Vdss compared to RP-6306 | half-life T1/2 compared to RP-6306 (in words) [4]: longer half-life T1/2 compared to RP-6306 | AUC0-last ([4]; injection 2 mg/kg): 337.7 ng·h/mL | Cl ([4]; injection 2 mg/kg): 94.4 mL/min/kg | T1/2 ([4]; injection 2 mg/kg): 3.32 h | Vdss ([4]; injection 2 mg/kg): 6.76 L/kg | AUC0-last ([4]; oral administration 10 mg/kg): 638.2 ng·h/mL | Cmax ([4]; oral administration 10 mg/kg): 603.3 ng/mL | F % ([4]; oral administration 10 mg/kg): 44.5% | T1/2 ([4]; oral administration 10 mg/kg): 3.84 h | solubility compared to RP-6306 (in words) ([5]; FaSSIF, FeSSIF, SGF, water, methanol, tetrahydrofuran): higher solubility in various vehicles | Solubility 0.5 h ([5]; FaSSIF, initial pH 6.52, 37° C.): 61 µg/mL (≈ 0.178 mM) | Solubility 0.5 h ([5]; FeSSIF, initial pH 4.98, 37° C.): 327 µg/mL (≈ 0.955 mM) | Solubility 0.5 h ([5]; Methanol): 40568 µg/mL (≈ 118 mM) | Solubility 0.5 h ([5]; SGF, initial pH 1.2, 37° C.): 4865 µg/mL (≈ 14.2 mM) | Solubility 0.5 h ([5]; Tetrahydrofuran): 6114 µg/mL (≈ 17.9 mM) | Solubility 0.5 h ([5]; Water, initial pH 7.7, 37° C.): 270 µg/mL (≈ 0.789 mM) | IC50 (MIA PaCa-2 cells [6]): 4320 nM
